Laboratory results from patent US6221914A, “Sulfonamide bridging compounds that inhibit tryptase activity” (Array Biopharma Inc., priority 1998, dated 2001).

What was measured:
Format in all cases: biochemical
[1] = target: T1, Human Neutrophil elastase (Homo sapiens, UniProt P08246); assay: Ki determination, human neutrophil elastase (pyroGlu-Pro-Val-pNA); conditions: 100 mM Tris-HCl, pH 8.3, 0.96 M NaCl, 1% BSA; read-out: Experimentally Determined Ki, Elastase
T1 construct: from tissue; host or cells: human neutrophils
T1 sequence (P08246 30-267): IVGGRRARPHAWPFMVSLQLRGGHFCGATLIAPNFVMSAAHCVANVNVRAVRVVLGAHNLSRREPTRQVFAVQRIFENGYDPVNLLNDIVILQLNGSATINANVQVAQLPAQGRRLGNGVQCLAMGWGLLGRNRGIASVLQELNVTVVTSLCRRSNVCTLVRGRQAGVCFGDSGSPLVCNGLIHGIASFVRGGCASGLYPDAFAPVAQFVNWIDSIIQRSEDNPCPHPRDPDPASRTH
Protocol: (§1) Protease inhibition was assayed according to published procedures with minor modifications using various proteases and specific chromogenic peptide p-nitroanilide substrates. Assays were performed in Costar ultra-low cluster 96-well microtiter plate (Costar Corning Corp., Cambridge Mass.). Each protease was incubated with various concentrations of the test compound for 15 min. at 37° C. or as otherwise indicated, in specific assay buffer, and the residual activity was then measured by addition of the substrate. p-Nitroaniline produced by the proteolysis was determined by measuring the change in absorbance at 405 nm on a SpectraMAX 340 plate reader (Molecular devices, Sunnyvale, Calif.).
(§2) 1. The inhibition constant, Ki is calculated from individual data points using the equation for a tight-binding inhibitor (See Beith, "Proteinase Inhibitors-Proceedings of 2nd Int. Res. Conference", Fritz, et al. eds, New York, p.4463-4469 (1974)):
(§3) vi /vo [((Ki '+[I]+[E]o)^2 -4 [I]o
(§4) [E]o)^1/2 (Ki '+[I]o -[E]o)]/2[E]o
(§5) where Ki ' is apparent inhibition constant; vi and vo are the inhibited and uninhibited rates, respectively; [I]o and [E]o are the total concentrations of inhibitor and enzyme, respectively.
(§6) [note: [E]o is determined by active site titration of enzyme]
(§7) The Ki values are obtained by correcting Ki ' values for the effect of substrate concentration according to: [formula]
(§8) 2. Other inhibition data (Ki >>[E]o), the Ki is calculated from using the equations for a competitive inhibitor: [formula]
Human Neutrophil elastase activity was determined by using pyroGlu-Pro-Val-pNA in 100 mM Tris-HCl, pH 8.3, 0.96 M NaCl, 1% BSA (See Kramps, et al. Scand. J. Clin. Lab. Invest. 43, 427-432 (1983)).
(§9) The inhibition constant (Ki) of the test compounds against each proteolytic enzyme was determined according to Zitnik et al., Biochem. Biophys. Res. Commun. 232, 687-697 (1997)).

[2] = target: T2, Bovine pancreatic Trypsin (Bos taurus, UniProt P00760); assay: Ki determination, bovine pancreatic trypsin (N-a-Benzoyl-L-Arg-pNA); conditions: 50 mM Tris-HCl, pH 8.2, 20 mM CaCl2; read-out: Experimentally Determined Ki, Trypsin
T2 construct: from tissue; host or cells: bovine pancreas
T2 sequence (P00760 24-246): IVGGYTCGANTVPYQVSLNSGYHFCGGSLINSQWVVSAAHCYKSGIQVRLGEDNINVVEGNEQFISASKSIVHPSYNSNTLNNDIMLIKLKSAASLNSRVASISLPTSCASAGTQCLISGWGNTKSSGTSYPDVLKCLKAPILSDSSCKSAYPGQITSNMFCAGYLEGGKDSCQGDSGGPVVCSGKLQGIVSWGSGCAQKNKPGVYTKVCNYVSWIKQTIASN
Protocol: as §1, §2, §3, §4, §5, §6, §7, §8
Bovine pancreatic Trypsin (TPCK-treated) activity was determined by using N-a-Benzoyl-L-Arg-pNA in 50 mM Tris-HCl, pH 8.2, 20 mM CaCl2 (See Somorin, et al., J. Biochem. 85, 157-162 (1979)).
as §9

[3] = target: T3, Human Neutrophil Cathepsin G (Homo sapiens, UniProt P08311); assay: Ki determination, human neutrophil cathepsin G (N-Suc-Ala-Ala-Pro-Phe-pNA); conditions: 625 mM Tris-HCl, pH 7.5, 2.5 mM MgCl2, 0.125% Brij 35; read-out: Experimentally Determined Ki, Cathepsin G
T3 construct: from tissue; host or cells: human neutrophils
T3 sequence (P08311 21-255): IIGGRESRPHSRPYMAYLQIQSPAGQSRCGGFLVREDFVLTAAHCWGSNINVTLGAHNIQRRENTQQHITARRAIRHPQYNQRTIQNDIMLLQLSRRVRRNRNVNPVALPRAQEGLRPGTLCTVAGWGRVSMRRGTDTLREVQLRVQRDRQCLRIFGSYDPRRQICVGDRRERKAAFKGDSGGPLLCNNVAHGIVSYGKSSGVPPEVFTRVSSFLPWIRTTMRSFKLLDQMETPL
Protocol: as §1, §2, §3, §4, §5, §6, §7, §8
Human Neutrophil Cathepsin G activity was determined by using N-Suc-Ala-Ala-Pro-Phe-pNA in 625 mM Tris-HCl, pH 7.5, 2.5 mM MgCl2, 0.125% Brij 35 (See Groutas et al., Arch. Biochem. Biophys. 294, 144-146 (1992)).
as §9

[4] = target: T4, Human plasma kallikrein (Homo sapiens, UniProt P03952); assay: Ki determination, human plasma kallikrein (H-D-Prolyl-Phe-Arg-pNA); conditions: 50 mM Tris-HCl, pH 7.8, 200 mM NaCl, 0.05% BSA; read-out: Experimentally Determined Ki, Plasma Kallikrein
T4 construct: from tissue; host or cells: human plasma
Protocol: as §1, §2, §3, §4, §5, §6, §7, §8
I. Human Plasma and r-Tissue Kallikrein
Human plasma and r-tissue kallikrein activity were determined in 50 mM Tris-HCl, pH 7.8, 200 mM NaCl, 0.05% BSA by using H-D-Prolyl-Phe-Arg-pNA and DL-Val-Leu-Arg-pNA, respectively (See Lottenberg, et al., Meth. Enzymol. 80, 341-361 (1981)).
as §9

T4 sequence (P03952 391-638 limits assumed): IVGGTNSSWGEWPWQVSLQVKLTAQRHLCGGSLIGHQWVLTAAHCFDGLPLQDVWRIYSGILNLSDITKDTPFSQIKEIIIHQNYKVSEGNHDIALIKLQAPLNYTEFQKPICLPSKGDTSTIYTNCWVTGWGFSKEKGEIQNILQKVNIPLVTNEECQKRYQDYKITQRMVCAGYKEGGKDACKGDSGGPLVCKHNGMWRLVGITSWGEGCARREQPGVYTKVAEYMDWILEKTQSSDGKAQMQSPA
T4 sequence (P03952 20-390 partner limits assumed): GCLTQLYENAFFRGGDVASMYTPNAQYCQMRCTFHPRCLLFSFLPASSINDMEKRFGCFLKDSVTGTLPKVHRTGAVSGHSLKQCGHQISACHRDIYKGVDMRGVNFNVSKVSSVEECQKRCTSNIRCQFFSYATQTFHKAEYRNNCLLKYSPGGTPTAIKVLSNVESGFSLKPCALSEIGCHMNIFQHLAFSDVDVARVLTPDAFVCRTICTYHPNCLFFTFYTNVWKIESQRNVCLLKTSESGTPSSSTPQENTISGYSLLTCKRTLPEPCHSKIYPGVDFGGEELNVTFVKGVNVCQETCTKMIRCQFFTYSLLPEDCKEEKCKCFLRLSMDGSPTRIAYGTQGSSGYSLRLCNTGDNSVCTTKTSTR

SMILES	Ki [1] [µM]	Ki [2] [µM]	Ki [3] [µM]	Ki [4] [µM]
N=C(N)c1ccc(C(=O)NCc2ccc(OCCOc3ccc(CNC(=O)c4ccc(C(=N)N)cc4)cc3)cc2)cc1 [Example 64, 1,2-Bis-{4-[(4-carbamimidoyl-benzoylamino)-methyl]-phenoxy}-ethane]	> 100	1.4	> 100	7.3
N=C(N)c1cccc(C(=O)NCc2ccc(OCCOc3ccc(CNC(=O)c4cccc(C(=N)N)c4)cc3)cc2)c1 [Example 65, 1,2-Bis-{4-[(3-carbamimidoyl-benzoylamino)-methyl]-phenoxy}-ethane]	> 100	2.2	> 100	24
CN(Cc1ccc(OCCCOc2ccc(CN(C)S(=O)(=O)c3cccc(C(=N)N)c3)cc2)cc1)S(=O)(=O)c1cccc(C(=N)N)c1 [Example 68, 1,3-Bis-{4-[(3-carbamimidoyl-benzenesulfonyl-[N-methyl]-amino)-methyl]-phenoxy}-propane]	> 100	3.2	> 100	4.3
N=C(N)c1ccc(C(=O)NCc2cccc(OCCCCCOc3cccc(CNC(=O)c4ccc(C(=N)N)cc4)c3)c2)cc1 [Example 76, 1,5-Bis-{3-[(4-carbamimidoyl-benzenecarbonylamino)-methyl]-phenoxy}-pentane]	> 100	0.83	> 100	2.8
N=C(N)c1cccc(C(=O)NCc2cccc(OCCCCCOc3cccc(CNC(=O)c4cccc(C(=N)N)c4)c3)c2)c1 [Example 77, 1,5-Bis-{3-[(3-carbamimidoyl-benzenecarbonylamino)-methyl]-phenoxy}-pentane]	> 100	1.4	> 100	2.9
N=C(N)c1ccc(C(=O)NCc2ccc(OCCCOc3ccc(CNC(=O)c4cccc(C(=N)N)c4)cc3)cc2)cc1 [Example 85, 4-Carbamimidoyl-N-[4-(3-{4-[(3-carbamimidoyl-benzoylamino)-methyl]-phenoxy}-propoxy)-benzyl]-benzamide]	> 100	1.1	> 100	1.7
N=C(N)c1ccc(C(=O)NCc2ccc(OCCCOc3ccc(CNS(=O)(=O)c4cccc(C(=N)N)c4)cc3)cc2)cc1 [Example 86, 4-Carbamimidoyl-N-[4-(3-{4-[(3-carbamimidoyl-benzenesulfonylamino)-methyl]-phenoxy}-propoxy)-benzyl]-benzamide]	> 100	2.1	> 100	1.4
N=C(N)c1ccc(C(=O)NCc2ccc(OCCCOc3ccc(CNC(=O)c4ccc(CN)cc4)cc3)cc2)cc1 [Example 87, N-[4-(3-{4-[(4-Aminomethyl-benzoylamino)-methyl]-phenoxy}-propoxy)-benzyl]-4-carbamimidoyl-benzamide]	> 100	2.8	> 100	3.5
N=C(N)c1ccc(C(=O)NCc2ccc(OCC3(COc4ccc(CNC(=O)c5ccc(C(=N)N)cc5)cc4)CCC3)cc2)cc1 [Example 93, 1,1-Bis-{4-[(4-carbamimidoyl-benzoyl-amino)-methyl]-phenoxy-methyl}-cyclobutane]	> 100	1.5	> 100	3.9
N=C(N)c1ccc2cc(C(=O)NCc3ccc(OCCOc4ccc(CNC(=O)c5ccc6cc(C(=N)N)ccc6c5)cc4)cc3)ccc2c1 [Example 100, 1,2-Bis-{4-[(6-carbamimidoylnaphthalene-2-carbonylamino)-methyl]-phenoxy}-ethane]	> 100	0.15	> 100	> 100
N=C(N)c1ccc2[nH]c(CC(=O)NCc3ccc(OCCCOc4ccc(CNC(=O)Cc5nc6cc(C(=N)N)ccc6[nH]5)cc4)cc3)nc2c1 [Example 107, 2-(5-Carbamimidoyl-1H-benzoimidazol-2-yl)-N-{4,-[3-(4-{2-(5-carbamimidoyl-1H-benzoimidazol-2-yl)acetylaminol-methyl}-phenoxy)-propoxy]-benzyl}-acetamide]	> 100	4.8	> 100	12
N=C(N)c1ccc2[nH]c(CC(=O)NCc3ccc(OCCCCCOc4ccc(CNC(=O)Cc5nc6cc(C(=N)N)ccc6[nH]5)cc4)cc3)nc2c1 [Example 108]	> 100	3.6	> 100	4.3
N=C(N)c1ccc2[nH]c(CC(=O)NCc3ccc(OCCCCOc4ccc(CNC(=O)Cc5nc6cc(C(=N)N)ccc6[nH]5)cc4)cc3)nc2c1 [Example 109]	> 100	11.4	> 100	2.5
N=C(N)c1ccc2sc(C(=O)NCc3ccc(OCCCOc4ccc(CNC(=O)c5cc6cc(C(=N)N)ccc6s5)cc4)cc3)cc2c1 [Example 117, 1,3-Bis-{4-[(5-carbamidoyl-2-benzthiophenyl-carbamido)-methyl]-phenoxy}-propane]	> 100	13	> 100	> 100
